Test results from patent publication US9867826B2, “Heterocycles as modulators of kinase activity” (Merck Patent GmbH, priority 2013, dated 2018).

Assays:
P70S6K (T412E mutant) = P70S6K (T412E mutant) (Homo sapiens (Human), UniProt P23443, T412E); test: P70S6K enzyme assay; format: biochemical; conditions: 24 μM ATP
Description: P70S6K inhibitor compounds were diluted and plated in 96 well plates. A reaction mixture including the following components was then added to the compound plate to initiate the enzyme reaction; P70S6K (3 nM, T412E mutant, Millipore) was mixed with 24 μM ATP in an assay buffer containing 100 mM Hepes (pH 7.5), 5 mM MgCl2, 1 mM DTT, 0.015% Brij and 1 μM of the substrate peptide FITC-AHA-AKRRRLSSLRA-OH (derived from the S6 ribosomal protein sequence, FITC=fluorescein isothiocyanate, AHA=6-aminohexanoic acid). The reaction was incubated for 90 min at 25° C., before the addition of 10 mM EDTA to stop the reaction. The proportion of substrate and product (phosphorylated) peptide was analysed on a Caliper Life Sciences Lab Chip 3000, using a pressure of −1.4 psi, and upstream and downstream voltages of −3000 and −700 respectively. Product peaks were resolved before substrate peaks on the resulting chromatograms.

His-AKT (Full Length) = His-AKT (Full Length) (Homo sapiens (Human), UniProt P31749); test: AKT enzyme assay; format: biochemical; conditions: 160 uM ATP
Description: A TTP Mosquito liquid handling instrument was used to place 125 nl of the appropriate concentration of inhibitor in 100% DMSO (for a dose response curve calculation) into each well of a 384-well plate. To this reaction components were added to a final volume of 12.5 μl: • 0.1 ng/μl His-AKT (Full Length), (Invitrogen, Part # P2999, Lot #641228C). • 160 uM ATP (Fluka, 02055) • 1 mM DTT (Sigma, D0632) • 1 mM MgCl2 (Sigma, M1028) • 1 μM substrate peptide (sequence FITC-AHA-GRPRTSSFAEG-NH2), synthesized by Tufts Peptide Synthesis service. • 100 mM HEPES pH 7.5 (Calbiochem, 391338) • 0.015% Brij-35 (Sigma, B4184)
The reaction was incubated for 90 min at 25 C., and then stopped by the addition of 70 μl of Stop buffer (100 mM HEPES pH 7.5, 0.015% Brij-35, 10 mM EDTA (Sigma, E7889)).
The plate was read on a Caliper LC 3000 in an Off-Chip mobility shift assay format, using the following parameters for a 12-sipper chip: screening pressure −2.3 psi, upstream voltage −500, and downstream voltage −3000. These conditions caused unphosphorylated substrate and phosphorylated product peptide to resolve as separate peaks allowing direct measurement of percentage of conversion of substrate to product.
The percent conversion was plotted against concentration of inhibitor to produce a sigmoidal dose response curve, from which an IC50 was calculated.

P70S6K (T412E mutant), sequence (P23443 whole entry T412E): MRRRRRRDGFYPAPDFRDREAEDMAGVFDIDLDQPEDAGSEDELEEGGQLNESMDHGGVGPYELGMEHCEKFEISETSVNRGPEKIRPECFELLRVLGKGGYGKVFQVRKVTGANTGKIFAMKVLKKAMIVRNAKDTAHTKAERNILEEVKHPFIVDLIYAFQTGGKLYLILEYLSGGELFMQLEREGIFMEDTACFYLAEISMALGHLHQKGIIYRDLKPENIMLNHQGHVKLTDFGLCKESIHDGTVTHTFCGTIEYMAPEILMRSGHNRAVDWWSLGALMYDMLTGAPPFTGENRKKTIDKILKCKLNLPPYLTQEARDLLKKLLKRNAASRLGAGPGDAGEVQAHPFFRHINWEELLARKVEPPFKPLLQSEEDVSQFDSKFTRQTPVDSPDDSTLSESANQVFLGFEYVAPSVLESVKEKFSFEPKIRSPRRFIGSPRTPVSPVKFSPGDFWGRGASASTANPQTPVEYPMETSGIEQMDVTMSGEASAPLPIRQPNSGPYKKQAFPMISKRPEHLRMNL
His-AKT (Full Length), sequence (P31749 whole entry): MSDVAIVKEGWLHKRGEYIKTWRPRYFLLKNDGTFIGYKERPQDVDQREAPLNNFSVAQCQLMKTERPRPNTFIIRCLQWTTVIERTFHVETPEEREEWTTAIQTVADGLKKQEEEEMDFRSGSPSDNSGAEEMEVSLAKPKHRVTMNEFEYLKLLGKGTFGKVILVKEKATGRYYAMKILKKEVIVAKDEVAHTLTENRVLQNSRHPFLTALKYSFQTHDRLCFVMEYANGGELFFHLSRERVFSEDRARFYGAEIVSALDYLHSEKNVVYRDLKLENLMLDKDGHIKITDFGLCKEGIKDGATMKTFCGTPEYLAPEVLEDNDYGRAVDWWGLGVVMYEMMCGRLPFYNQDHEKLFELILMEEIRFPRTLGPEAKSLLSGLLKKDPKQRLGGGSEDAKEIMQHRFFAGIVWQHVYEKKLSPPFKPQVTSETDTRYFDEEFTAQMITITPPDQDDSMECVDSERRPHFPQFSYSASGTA

| SMILES | IC50 (P70S6K (T412E mutant)) | IC50 (His-AKT (Full Length)) |
| --- | --- | --- |
| C[C@H]1CN(c2ncnc(N)c2C#N)CC[C@H]1c1nc(-c2ccc(F)c(C(F)(F)F)c2)cn1CCN1CCC1 (racemic) [Compound 5, 4-Amino-6-{3,4-cis-4-[1-(2-azetidin-1-yl-ethyl)-4-(4-fluoro-3-trifluoromethyl-phenyl)-1H-imidazol-2-yl]-3-methyl-piperidin-1-yl}-pyrimidine-5-carbonitrile] | 1 to 10 nM | > 10 nM |
| C[C@H]1CN(c2ncnc(N)c2C(N)=O)CC[C@H]1c1nc(-c2ccc(F)c(C(F)(F)F)c2)cn1CCN1CCC1 (racemic) [Compound 6, 4-Amino-6-{3,4-cis-4-[1-(2-azetidin-1-yl-ethyl)-4-(4-fluoro-3-trifluoromethyl-phenyl)-1H-imidazol-2-yl]-3-methyl-piperidin-1-yl}-pyrimidine-5-carboxamide] | > 10 nM | > 10 nM |
| Cc1cc(-c2cn(CCN(C)C)c([C@@H]3CCN(c4ncnc(N)c4C#N)C[C@@H]3F)n2)ccc1F (racemic) [Compound 9] | 1 to 10 nM | 1 to 10 nM |
| Cc1cc(-c2cn(CCN(C)C)c([C@H]3CCN(c4ncnc(N)c4Cl)C[C@H]3F)n2)ccc1F (racemic) [Compound 12, 5-chloro-6-{3,4-cis-4-[1-(2-dimethylamino-ethyl)-4-(4-fluoro-3-methyl-phenyl)-1H-imidazol-2-yl]-3-fluoro-piperidin-1-yl}-pyrimidin-4-ylamine] | 1 to 10 nM | 1 to 10 nM |
| CN(C)CCn1cc(-c2ccc(F)c(C(F)(F)F)c2)nc1[C@@H]1CCN(c2ncnc(N)c2C#N)C[C@@H]1F (racemic) [Compound 14, 4-Amino-6-{3,4-cis-4-[1-(2-dimethylamino-ethyl)-4-(4-fluoro-3-trifluoromethyl-phenyl)-1H-imidazol-2-yl]-3-fluoro-piperidin-1-yl}-pyrimidine-5-carbonitrile] | 1 to 10 nM | 1 to 10 nM |
| CN(C)CCn1cc(-c2ccc(F)c(C(F)(F)F)c2)nc1[C@@H]1CCN(c2ncnc(N)c2C(N)=O)C[C@@H]1F (racemic) [Compound 15] | 1 to 10 nM | > 10 nM |
| CC(C)c1c(N)ncnc1N1CC[C@@H](c2nc(-c3ccc(F)c(C(F)(F)F)c3)cn2CCN(C)C)[C@@H](F)C1 (racemic) [Compound 17, 6-{cis-4-[1-(2-Dimethylamino-ethyl)-4-(4-fluoro-3-trifluoromethyl-phenyl)-1H-imidazol-2-yl]-3-fluoro-piperidin-1-yl}-5-isopropyl-pyrimidin-4-ylamine] | 1 to 10 nM | > 10 nM |
| Cc1cc(-c2cn(CCN3CCC3)c([C@@H]3CCN(c4ncnc(N)c4C#N)C[C@@H]3F)n2)ccc1F (racemic) [Compound 18, 4-Amino-6-{cis-4-[1-(2-azetidin-1-yl-ethyl)-4-(4-fluoro-3-methyl-phenyl)-1H-imidazol-2-yl]-3-fluoro-piperidin-1-yl}-pyrimidine-5-carbonitrile] | 1 to 10 nM | 1 to 10 nM |
| Cc1cc(-c2cn(CCN3CCC3)c([C@@H]3CCN(c4ncnc(N)c4C(C)C)C[C@@H]3F)n2)ccc1F (racemic) [Compound 24, 6-{cis-4-[1-(2-Azetidin-1-yl-ethyl)-4-(4-fluoro-3-methyl-phenyl)-1H-imidazol-2-yl]-3-fluoro-piperidin-1-yl}-5-isopropyl-pyrimidin-4-ylamine] | 1 to 10 nM | 1 to 10 nM |
| CC(C)c1c(N)ncnc1N1CC[C@@H](c2nc(-c3ccc(F)c(C(F)(F)F)c3)c[nH]2)[C@@H](F)C1 (racemic) [Compound 26, 6-{cis-3-Fluoro-4-[4-(4-fluoro-3-trifluoromethyl-phenyl)-1H-imidazol-2-yl]-piperidin-1-yl}-5-isopropyl-pyrimidin-4-ylamine] | 1 to 10 nM | > 10 nM |

Other lines, results leading:

| IC50 (P70S6K (T412E mutant)) | IC50 (His-AKT (Full Length)) | SMILES |
| --- | --- | --- |
| < 1 nM | < 1 nM | N#Cc1c(N)ncnc1N1CC[C@@H](c2nc(-c3ccc(F)c(C(F)(F)F)c3)cn2CCN2CCC2)[C@@H](F)C1 (racemic) [Compound 1, 4-Amino-6-{3,4-cis-4-[1-(2-azetidin-1-yl-ethyl)-4-(4-fluoro-3-trifluoromethyl-phenyl)-1H-imidazol-2-yl]-3-fluoro-piperidin-1-yl}-pyrimidine-5-carbonitrile] |
| < 1 nM | < 1 nM | NC(=O)c1c(N)ncnc1N1CC[C@@H](c2nc(-c3ccc(F)c(C(F)(F)F)c3)cn2CCN2CCC2)[C@@H](F)C1 (racemic) [Compound 2, 4-Amino-6-{3,4-cis-4-{1-(2-azetidin-1-yl-ethyl)-4-(4-fluoro-3-trifluoromethyl-phenyl)-1H-imidazol-2-yl}-3-fluoro-piperidin-1-yl}-pyrimidine-5-carboxamide] |
| 1 to 10 nM | > 10 nM | N#Cc1c(N)ncnc1N1CC[C@H](c2nc(-c3ccc(F)c(C(F)(F)F)c3)cn2CCN2CCC2)[C@@H](F)C1 (racemic) [Compound 7, 4-amino-6-{3,4-trans-4-[1-(2-azetidin-1-yl-ethyl)-4-(4-fluoro-3-trifluoromethyl-phenyl)-1H-imidazol-2-yl]-3-fluoro-piperidin-1-yl}-pyrimidine-5-carbonitrile] |
| 1 to 10 nM | > 10 nM | NC(=O)c1c(N)ncnc1N1CC[C@@H](c2nc(-c3ccc(F)c(C(F)(F)F)c3)cn2CCN2CCC2)[C@H](F)C1 (racemic) [Compound 8, 4-Amino-6-{3,4-trans-4-[1-(2-azetidin-1-yl-ethyl)-4-(4-fluoro-3-trifluoromethyl-phenyl)-1H-imidazol-2-yl]-3-fluoro-piperidin-1-yl}-pyrimidine-5-carboxamide] |
| < 1 nM | < 1 nM | Nc1ncnc(N2CC[C@@H](c3nc(-c4ccc(F)c(C(F)(F)F)c4)cn3CCN3CCC3)[C@@H](F)C2)c1Cl (racemic) [Compound 10, 6-{3,4-cis-4-[1-(2-Azetidin-1-yl-ethyl)-4-(4-fluoro-3-trifluoromethyl-phenyl)-1H-imidazol-2-yl]-3-fluoro-piperidin-1-yl}-5-chloro-pyrimidin-4-ylamine] |
| 1 to 10 nM | 1 to 10 nM | Nc1ncnc(N2CC[C@@H](c3nc(-c4ccc(F)c(C(F)(F)F)c4)cn3CCN3CCC3)[C@H](F)C2)c1Cl (racemic) [Compound 11, 6-{3,4-trans-4-[1-(2-Azetidin-1-yl-ethyl)-4-(4-fluoro-3-trifluoromethyl-phenyl)-1H-imidazol-2-yl]-3-fluoro-piperidin-1-yl}-5-chloro-pyrimidin-4-ylamine] |
| 1 to 10 nM | 1 to 10 nM | CCc1c(N)ncnc1N1CC[C@@H](c2nc(-c3ccc(F)c(C(F)(F)F)c3)cn2CCN2CCC2)[C@@H](F)C1 (racemic) [Compound 13, 6-{3,4-cis-4-[1-(2-Azetidin-1-yl-ethyl)-4-(4-fluoro-3-trifluoromethyl-phenyl)-1H-imidazol-2-yl]-3-fluoro-piperidin-1-yl}-5-ethyl-pyrimidin-4-ylamine] |
| 1 to 10 nM | 1 to 10 nM | CCOc1c(N)ncnc1N1CC[C@@H](c2nc(-c3ccc(F)c(C(F)(F)F)c3)cn2CCN2CCC2)[C@@H](F)C1 (racemic) [Compound 16, 6-{3,4-cis-4-[1-(2-Azetidin-1-yl-ethyl)-4-(4-fluoro-3-trifluoromethyl-phenyl)-1H-imidazol-2-yl]-3-fluoro-piperidin-1-yl}-5-ethoxy-pyrimidin-4-ylamine] |
| 1 to 10 nM | 1 to 10 nM | CN(C)CCn1cc(-c2ccc(F)c(C(F)(F)F)c2)nc1[C@@H]1CCN(c2ncnc(N)c2Cl)C[C@@H]1F (racemic) [Compound 25] |
